# Earlier results, collected in patent US20030027805A1, “Use of 1,4-androstadienedione as a method of increasing levels of the anabolic/androgenic steroid boldenone in humans” (priority 2000, published 2003).
# Several values for one entry are separate records, joined by “and”; a condition that tells them apart may be missing. Equal entries are not always repeated.
# Settings: for excretion in 17-hydroxy form: urinary, after oral dosing, comparison reported in literature
SMILES,excretion of 17beta-hydroxysteroid metabolites compared with 1-androstenedione (comparison by the same authors with later 1-androstenedione study),"total recovery of 17-OH steroids (human, two subjects, urine, within 24 hours after oral administration of 100 mg, boldenone conjugates plus other 17-beta hydroxysteroids)","urinary recovery of boldenone conjugates (human, two subjects, within 24 hours after oral administration of 100 mg)",excretion in 17-hydroxy form
"C[C@]12C=CC(=O)C=C1CC[C@@H]1[C@@H]2CC[C@]2(C)C(=O)CC[C@@H]12 [androstadienedione, 1,4-androstadiene-3,17-dione]",far more,18.4 % of the given dose and 21.2 % of the given dose,7.1 % of the initial dosage and 11.1 % of the initial dosage,–
"C[C@]12CC[C@H]3[C@@H](CCC4=CC(=O)CC[C@@]43C)[C@@H]1CC[C@@H]2O [testosterone, reference compound]",–,–,–,only in very small amounts
"C[C@]12CCC(=O)C=C1CC[C@@H]1[C@@H]2CC[C@]2(C)C(=O)CC[C@@H]12 [androstenedione, reference compound]",–,–,–,only in very small amounts
